Assay results from patent US20020137929A1, “1 - (3-heterocyclylphenyl) isothiourea, -isourea, -guanidine and -amidine herbicidal agents” (Intellectual Property Department, BASF Aktiengesellschaft, priority 1998, published 2002).

Columns and labels:
[1] = test system: ZEAMX (Corn, Field); assay: Postemergence herbicidal evaluation; assay type: in vivo, Zea mays; conditions: postemergence
Method in brief: (§1)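 ~2-wk seedlings; postemergence spray, 40 psi; vehicle 1:1 acetone:water + 0.5% Tween 20; rate ≈0.0156–0.500 kg/ha; greenhouse hold; scored 4–5 wk after treatment, 0–9 scale vs control; repeat tests averaged.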

[2] = test system: SETVI (Foxtail, Green); assay: Preemergence herbicidal evaluation; assay type: in vivo, Setaria viridis; conditions: rated 4-5 weeks after treatment
Method in brief: (§2)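 Visual 0-9 rating vs control (stand, vigor, malformation, size, chlorosis, overall appearance), scored 4-5 wk after spraying. Seeded soil cups were treated preemergence with compound in aqueous acetone, ~0.0156-0.500 kg/ha equivalent.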

[3] = test system: SETVI (Foxtail, Green); assay: Postemergence herbicidal evaluation; assay type: in vivo, Setaria viridis; conditions: postemergence
Method in brief: as §1

[4] = test system: ECHCG (Barnyardgrass); assay: Preemergence herbicidal evaluation; assay type: in vivo, Echinochloa crus-galli; conditions: rated 4-5 weeks after treatment
Method in brief: as §2

[5] = test system: ECHORC (Watergrass (Calif.)); assay: Postemergence weed control under flooded paddy conditions; assay type: in vivo, Echinochloa oryzoides; conditions: postemergence weeds, rated 3 to 4 weeks after treatment
Method in brief: (§3)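 Flood-water application, about 0.0313–0.500 kg/ha a.i. in aqueous/acetone 50/50 v/v; water depth 1.5–3 cm throughout. Weeds 3–5 cm, rice 1.5–2.5 leaf. Greenhouse; 0–9 visual rating vs control at 3–4 wk.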

[6] = test system: CYPIR (Rice Flatsedge); assay: as above; assay type: in vivo, Cyperus iria; conditions: postemergence weeds, rated 3 to 4 weeks after treatment
Method in brief: as §3

[7] = test system: CYPIR (Rice Flatsedge); assay: Preemergence weed control under flooded paddy conditions; assay type: in vivo, Cyperus iria; conditions: rated 3-4 weeks after treatment
Method in brief: (§4)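 Ratings on a 0-9 visual scale cover stand, vigor, malformation, size, chlorosis and overall appearance relative to a control, taken three to four weeks post-treatment. Application was into flood water over freshly sown silt loam at roughly 0.0313 to 0.500 kg/ha.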

[8] = test system: SAGPY (Arrowhead (Pygmaea)); assay: Postemergence weed control under flooded paddy conditions; assay type: in vivo, Sagittaria pygmaea; conditions: postemergence weeds, rated 3 to 4 weeks after treatment
Method in brief: as §3

[9] = test system: CYPSE (Flatsedge); assay: Preemergence weed control under flooded paddy conditions; assay type: in vivo, Cyperus serotinus; conditions: rated 3-4 weeks after treatment
Method in brief: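 First, seeds or propagules go into the top 0.5 cm of silt loam; next, water is held 1.5 to 3 cm over the soil; then compound (50/50 acetone/water) is pipetted into it at about 0.0313 to 0.500 kg/ha; finally plants are rated visually 0-9 after three to four weeks.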

[10] = test system: ZEAMX (Corn, Field); assay: Preemergence herbicidal evaluation; assay type: in vivo, Zea mays; conditions: rated 4-5 weeks after treatment
Method in brief: as §2

[11] = test system: ECHORC (Watergrass (Calif.)); assay: Preemergence weed control under flooded paddy conditions; assay type: in vivo, Echinochloa oryzoides; conditions: rated 3-4 weeks after treatment
Method in brief: as §4

[12] = test system: CYPSE (Flatsedge); assay: Postemergence weed control under flooded paddy conditions; assay type: in vivo, Cyperus serotinus; conditions: postemergence weeds, rated 3 to 4 weeks after treatment
Method in brief: as §3

[13] = test system: ORYSAT (Rice, Tebonnet); assay: Postemergence herbicidal evaluation; assay type: in vivo, Oryza sativa, (L.) Tebonnet; conditions: postemergence
Method in brief: as §1

[14] = test system: TRZAWR (Wheat, Winter, cv Riband); assay: Preemergence herbicidal evaluation; assay type: in vivo, Triticum aestivum; conditions: rated 4-5 weeks after treatment
Method in brief: as §2

Cn1c(C(F)(F)F)cc(=O)n(-c2cc(N=C3SCC(=O)N3CC(=O)OCC#N)c(Cl)cc2F)c1=O [Compound 109, 2-{{2-Chloro-5-[3,6-dihydro-3-methyl-2,6-dioxo-4-(trifluoromethyl)-1(2H)-pyrimidinyl]-4-fluorophenyl}imino}-4-oxo-3-thiazolidineacetic acid, ester with glycolonitrile]
herbicidal rating ZEAMX ([1]; rate 0.0158 kg/ha): 6.5
herbicidal rating ZEAMX ([1]; rate 0.0315 kg/ha): 6.5
herbicidal rating ZEAMX ([1]; rate 0.0630 kg/ha): 7.0
Preemergence herbicidal rating SETVI ([2]; rate 0.0156 kg/ha): 5.5
Preemergence herbicidal rating SETVI ([2]; rate 0.0313 kg/ha): 6.0
Preemergence herbicidal rating SETVI ([2]; rate 0.0625 kg/ha): 9.0
Preemergence herbicidal rating SETVI ([2]; rate 0.1250 kg/ha): 9.0
Preemergence herbicidal rating SETVI ([2]; rate 0.2500 kg/ha): 9.0
Preemergence herbicidal rating SETVI ([2]; rate 0.5000 kg/ha): 9.0
herbicidal rating SETVI ([3]; rate 0.0158 kg/ha): 6.0
herbicidal rating SETVI ([3]; rate 0.0315 kg/ha): 7.0
herbicidal rating SETVI ([3]; rate 0.0630 kg/ha): 9.0
Preemergence herbicidal rating ECHCG ([4]; rate 0.0156 kg/ha): 1.5
Preemergence herbicidal rating ECHCG ([4]; rate 0.0313 kg/ha): 2.5
Preemergence herbicidal rating ECHCG ([4]; rate 0.0625 kg/ha): 4.0
Preemergence herbicidal rating ECHCG ([4]; rate 0.1250 kg/ha): 7.0
Preemergence herbicidal rating ECHCG ([4]; rate 0.2500 kg/ha): 8.5
Preemergence herbicidal rating ECHCG ([4]; rate 0.5000 kg/ha): 9.0
Herbicidal rating ECHORC ([5]; Rate 0.0313 kg/ha): 2.0
Herbicidal rating ECHORC ([5]; Rate 0.0625 kg/ha): 2.0
Herbicidal rating ECHORC ([5]; Rate 0.1250 kg/ha): 7.0
Herbicidal rating ECHORC ([5]; Rate 0.2500 kg/ha): 9.0
Herbicidal rating CYPIR ([6]; Rate 0.0313 kg/ha): 0.0
Herbicidal rating CYPIR ([6]; Rate 0.0625 kg/ha): 2.0
Herbicidal rating CYPIR ([6]; Rate 0.1250 kg/ha): 4.0
Herbicidal rating CYPIR ([6]; Rate 0.2500 kg/ha): 7.0
CYPIR herbicidal effect rating ([7]; 0.0313 kg/ha): 5.0
CYPIR herbicidal effect rating ([7]; 0.0625 kg/ha): 7.0
CYPIR herbicidal effect rating ([7]; 0.1250 kg/ha): 9.0
CYPIR herbicidal effect rating ([7]; 0.2500 kg/ha): 9.0
Herbicidal rating SAGPY ([8]; Rate 0.0313 kg/ha): 0.0
Herbicidal rating SAGPY ([8]; Rate 0.0625 kg/ha): 0.0
Herbicidal rating SAGPY ([8]; Rate 0.1250 kg/ha): 0.0
Herbicidal rating SAGPY ([8]; Rate 0.2500 kg/ha): 0.0
CYPSE herbicidal effect rating ([9]; 0.0313 kg/ha): 4.5
CYPSE herbicidal effect rating ([9]; 0.0625 kg/ha): 5.5
CYPSE herbicidal effect rating ([9]; 0.1250 kg/ha): 9.0
CYPSE herbicidal effect rating ([9]; 0.2500 kg/ha): 6.5
Preemergence herbicidal rating ZEAMX ([10]; rate 0.0156 kg/ha): 3.0
Preemergence herbicidal rating ZEAMX ([10]; rate 0.0313 kg/ha): 3.5
Preemergence herbicidal rating ZEAMX ([10]; rate 0.0625 kg/ha): 4.0
Preemergence herbicidal rating ZEAMX ([10]; rate 0.1250 kg/ha): 6.0
Preemergence herbicidal rating ZEAMX ([10]; rate 0.2500 kg/ha): 6.5
Preemergence herbicidal rating ZEAMX ([10]; rate 0.5000 kg/ha): 7.0
ECHORC herbicidal effect rating ([11]; 0.0313 kg/ha): 9.0
ECHORC herbicidal effect rating ([11]; 0.0625 kg/ha): 9.0
ECHORC herbicidal effect rating ([11]; 0.1250 kg/ha): 9.0
ECHORC herbicidal effect rating ([11]; 0.2500 kg/ha): 9.0
Herbicidal rating CYPSE ([12]; Rate 0.0313 kg/ha): 0.0
Herbicidal rating CYPSE ([12]; Rate 0.0625 kg/ha): 0.0
Herbicidal rating CYPSE ([12]; Rate 0.2500 kg/ha): 7.0
herbicidal rating ORYSAT ([13]; rate 0.0158 kg/ha): 3.0
herbicidal rating ORYSAT ([13]; rate 0.0315 kg/ha): 4.5
herbicidal rating ORYSAT ([13]; rate 0.0630 kg/ha): 5.0
Preemergence herbicidal rating TRZAWR ([14]; rate 0.0156 kg/ha): 0.0
Preemergence herbicidal rating TRZAWR ([14]; rate 0.0313 kg/ha): 1.0
Preemergence herbicidal rating TRZAWR ([14]; rate 0.0625 kg/ha): 1.0
Preemergence herbicidal rating TRZAWR ([14]; rate 0.1250 kg/ha): 6.0
Preemergence herbicidal rating TRZAWR ([14]; rate 0.2500 kg/ha): 4.0
